{
  "source": "ChEMBL document CHEMBL4350984",
  "about": "“Natural products as multidrug resistance modulators in cancer” (Eur J Med Chem, 2019)",
  "key": {"Homo sapiens [1]": {"species_on_record": "Homo sapiens", "assay": "Inhibition of BCRP-mediated mitoxantrone efflux in human NCI-H460/MX20 cells assessed as mitoxantrone accumulation at 20 uM after 15 mins by Hoechst 33342 staining based flow cytometry analysis relative to control", "format": "cell-based", "parameters": "scale not given: the % may be the effect or the level left"}, "Homo sapiens [2]": {"species_on_record": "Homo sapiens", "assay": "Inhibition of BCRP-mediated mitoxantrone efflux in human NCI-H460/MX20 cells assessed as mitoxantrone accumulation at 10 uM after 15 mins by Hoechst 33342 staining based flow cytometry analysis relative to control", "format": "cell-based", "parameters": "scale not given: the % may be the effect or the level left"}, "[3]": {"assay": "Cytotoxicity against human KBv200 cells assessed as reduction in cell viability", "format": "functional, cell-based"}, "cells": {"assay": "cells", "conditions": "Homo sapiens, 72 h", "description": "Downregulation of ABCB1 gene expression in human EPG85-257RDB cells after 72 hrs by RT-PCR analysis"}},
  "data": [
    {"smiles": "COC(=O)c1c(-c2ccc(O)cc2)c(-c2ccc(O)cc2)cn1CC(=O)c1ccc(OC)cc1", "values": [
      {"measurement": "Activity", "setting": "Homo sapiens [1]", "value": 94.5, "unit": "%"}
    ]},
    {"smiles": "COc1ccc2c3c([nH]c2c1)[C@H](C=C(C)C)N1C(=O)[C@@H]2CCCN2C(=O)[C@@H]1C3", "values": [
      {"measurement": "Activity", "setting": "Homo sapiens [2]", "value": 100, "unit": "%"}
    ]},
    {"smiles": "COc1ccc2cc1Oc1ccc(cc1)C[C@H]1c3cc(c(OC)cc3CCN1C)Oc1c(OC)c(OC)cc3c1[C@H](C2)N(C)CC3", "note": "[FANCHININ]", "values": [
      {"measurement": "IC50", "setting": "[3]", "value": 2, "unit": "µM"}
    ]},
    {"smiles": "O=c1c(O)c(-c2ccc(O)c(O)c2)oc2cc(O)cc(O)c12", "note": "[QUERCETIN]", "values": [
      {"measurement": "IC50", "setting": "cells", "value": 12, "unit": "µM"}
    ]}
  ]
}
